Reference: patent US20240270741A1 (Cogent Biosciences, Inc., priority 2023, published 2024)

The compounds below were run against FGFR2 (Homo sapiens, UniProt P21802) (assay: FGFR wild type enzyme assay (HTRF KinEASE-TK), FGFR2). Conditions: Enz FGFR2 (nM), FGFR2 wild type enzyme assay.
Chain of FGFR2 (P21802 399-821 limits assumed): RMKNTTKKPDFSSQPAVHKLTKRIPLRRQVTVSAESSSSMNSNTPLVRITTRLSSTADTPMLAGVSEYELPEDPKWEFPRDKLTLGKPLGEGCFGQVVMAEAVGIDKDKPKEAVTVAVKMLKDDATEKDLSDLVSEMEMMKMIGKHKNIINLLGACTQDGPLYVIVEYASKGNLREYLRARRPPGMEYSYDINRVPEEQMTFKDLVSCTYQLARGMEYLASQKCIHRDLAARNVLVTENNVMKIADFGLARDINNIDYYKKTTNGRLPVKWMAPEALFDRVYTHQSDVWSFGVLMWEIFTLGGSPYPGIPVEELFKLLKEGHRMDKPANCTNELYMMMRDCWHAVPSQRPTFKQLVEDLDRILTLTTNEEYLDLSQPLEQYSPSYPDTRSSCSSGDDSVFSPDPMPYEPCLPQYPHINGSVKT

SMILES	IC50 [nM]
N#Cc1ccccc1Sc1cc(-c2cnn([C@@H]3CCN(CCO)C3)c2)cn2ncc(C#N)c12 [Example 603, (R)-4-((2-cyanophenyl)thio)-6-(1-(1-(2-hydroxyethyl)pyrrolidin-3-yl)-1H-pyrazol-4-yl)pyrazolo[1,5-a]pyridine-3-carbonitrile]	0.6
CN1CC[C@@H](n2cc(-c3cc(Sc4ccccc4C#N)c4c(C#N)cnn4c3)cn2)C1 [Example 604, (R)-4-((2-cyanophenyl)thio)-6-(1-(1-methylpyrrolidin-3-yl)-1H-pyrazol-4-yl)pyrazolo[1,5-a]pyridine-3-carbonitrile]	0.5
C[C@@H](O)C(=O)N1CC[C@@H](n2cc(-c3cc(Sc4ccccc4C#N)c4c(C#N)cnn4c3)cn2)C1 [Example 605, 4-((2-cyanophenyl)thio)-6-(1-((R)-1-((R)-2-hydroxypropanoyl)pyrroli-din-3-yl)-1H-pyrazol-4-yl)pyrazolo[1,5-a]pyridine-3-carbonitrile]	0.6
C[C@H](O)C(=O)N1CC[C@@H](n2cc(-c3cc(Sc4ccccc4C#N)c4c(C#N)cnn4c3)cn2)C1 [Example 606, 4-((2-cyanophenyl)thio)-6-(1-((R)-1-((S)-2-hydroxypropanoyl)pyrrolidin-3-yl)-1H-pyrazol-4-y)pyrazolo[1,5-a]pyridine-3-carbonitrile]	0.5
N#Cc1ccccc1Sc1cc(-c2cnn(C(F)(F)F)c2)cn2ncc(C#N)c12 [Example 607, 4-((2-cyanophenyl)thio)-6-(1-(trifluoromethyl)-1H-pyrazol-4-yl)pyrazolo[1,5-a]pyridine-3-carbonitrile]	10
Cn1ncc(-c2cc(Sc3ccccc3C#N)c3c(C#N)cnn3c2)c1N [Example 608, 6-(5-amino-1-methyl-1H-pyrazol-4-yl)-4-((2-cyanophenyl)thio)pyrazolo [1,5-a]pyridine-3-carbonitrile]	2
N#Cc1ccccc1Sc1cc(-c2cnn(-c3cn[nH]c3)c2)cn2ncc(C#N)c12 [Example 609, 6-(1′H-[1,4′-bipyrazol]-4-yl)-4-((2-cyanophenyl)thio)pyrazolo [1,5-a]pyridine-3-carbonitrile]	4
CN1CCN(c2ccc(-c3cc(Sc4ccc(F)cc4C#N)c4c(C#N)cnn4c3)cn2)CC1=O [Example 610, 4-((2-cyano-4-fluorophenyl)thio)-6-(6-(4-methyl-3-oxopiperazin-1-yl)pyridin-3-yl)pyrazolo[1,5-a]pyridine-3-carbonitrile]	2
N#Cc1cc(F)ccc1Sc1cc(-c2ccc(N3C[C@H](O)[C@@H](O)C3)nc2)cn2ncc(C#N)c12 [Example 611, 4-((2-cyano-4-fluorophenyl)thio)-6-(6-((3S,4S)-3,4-dihydroxypyrrolidin-1-yl)pyridin-3-yl)pyrazolo[1,5-a]pyridine-3-carbonitrile]	3
CN(C)c1ccc(-c2cc(Sc3ccc(F)cc3C#N)c3c(C#N)cnn3c2)cn1 [Example 612, 4-((2-cyano-4-fluorophenyl)thio)-6-(6-(dimethylamino)pyridin-3-yl)pyrazolo[1,5-a]pyridine-3-carbonitrile]	2
N#Cc1ccccc1Sc1cc(-c2cnn(CC(F)F)c2)cn2ncc(C#N)c12 [Example 613, 4-((2-cyanophenyl)thio)-6-(1-(2,2-difluoroethyl)-1H-pyrazol-4-yl)pyrazolo[1,5-a]pyridine-3-carbonitrile]	1
Cc1c(-c2cc(Sc3ccccc3C#N)c3c(C#N)cnn3c2)cnn1C [Example 614, 4-((2-cyanophenyl)thio)-6-(1,5-dimethyl-1H-pyrazol-4-yl)pyrazolo[1,5-a]pyridine-3-carbonitrile]	9
Cc1nc(Sc2cc(-c3cnn(C)c3)cn3ncc(C#N)c23)c(F)cc1F [Example 615, 4-((3,5-difluoro-6-methylpyridin-2-yl)thio)-6-(1-methyl-1H-pyrazol-4-yl)pyrazolo[1,5-a]pyridine-3-carbonitrile]	2
Cn1cc(-c2cc(Sc3ccccn3)c3c(C#N)cnn3c2)cn1 [Example 616, 6-(1-methyl-1H-pyrazol-4-yl)-4-(pyridin-2-ylthio)pyrazolo[1,5-a]pyridine-3-carbonitrile]	6
Cn1cc(-c2cc(Sc3ncccc3F)c3c(C#N)cnn3c2)c(N)n1 [Example 617, 6-(3-amino-1-methyl-1H-pyrazol-4-yl)-4-((3-fluoropyridin-2-yl)thio)pyrazolo[1,5-a]pyridine-3-carbonitrile]	6
CN1CC[C@@H](n2cc(-c3cc(Sc4ccccc4C#N)c4c(C#N)cnn4c3)cn2)CC1=O [Example 618, (R)-4-((2-cyanophenyl)thio)-6-(1-(1-methyl-2-oxopiperidin-4-yl)-1H-pyrazol-4-yl)pyrazolo[1,5-a]pyridine-3-carbonitrile]	0.4

SMILES	IC50 [nM]
CN1CC[C@H](n2cc(-c3cc(Sc4ccccc4C#N)c4c(C#N)cnn4c3)cn2)CC1=O [Example 619, (S)-4-((2-cyanophenyl)thio)-6-(1-(1-methyl-2-oxopiperidin-4-yl)-1H-pyrazol-4-yl)pyrazolo[1,5-a]pyridine-3-carbonitrile]	2
CC1(C)C[C@H](n2cc(-c3cc(Sc4ccccc4C#N)c4c(C#N)cnn4c3)cn2)CCN1 [Example 620, (R)-4-((2-cyanophenyl)thio)-6-(1-(2,2-dimethylpiperidin-4-yl)-1H-pyrazol-4-yl)pyrazolo[1,5-a]pyridine-3-carbonitrile]	0.3
CC1(C)C[C@@H](n2cc(-c3cc(Sc4ccccc4C#N)c4c(C#N)cnn4c3)cn2)CCN1 [Example 621, (S)-4-((2-cyanophenyl)thio)-6-(1-(2,2-dimethylpiperidin-4-yl)-1H-pyrazol-4-yl)pyrazolo[1,5-a]pyridine-3-carbonitrile]	0.3
N#Cc1ccccc1Sc1cc(-c2cnn([C@@H]3CCC(=O)NC3)c2)cn2ncc(C#N)c12 [Example 622, (R)-4-((2-cyanophenyl)thio)-6-(1-(6-oxopiperidin-3-yl)-1H-pyrazol-4-yl)pyrazolo[1,5-a]pyridine-3-carbonitrile]	0.5
N#Cc1ccccc1Sc1cc(-c2cnn([C@H]3CCC(=O)NC3)c2)cn2ncc(C#N)c12 [Example 623, (S)-4-((2-cyanophenyl)thio)-6-(1-(6-oxopiperidin-3-yl)-1H-pyrazol-4-yl)pyrazolo[1,5-a]pyridine-3-carbonitrile]	1
N#Cc1ccccc1Sc1cc(-c2cnn(C3CCC3)c2)cn2ncc(C#N)c12 [Example 624, 4-((2-cyanophenyl)thio)-6-(1-cyclobutyl-1H-pyrazol-4-yl)pyrazolo[1,5-a]pyridine-3-carbonitrile]	1
N#Cc1ccccc1Sc1cc(-c2cnn([C@H]3CCCNC3)c2F)cn2ncc(C#N)c12 [Example 625, (S)-4-((2-cyanophenyl)thio)-6-(5-fluoro-1-(piperidin-3-yl)-1H-pyrazol-4-yl)pyrazolo[1,5-a]pyridine-3-carbonitrile]	1
N#Cc1cc(F)ccc1Sc1cc(-c2ccc(N3CC[C@H](O)C3)nc2)cn2ncc(C#N)c12 [Example 626, (S)-4-((2-cyano-4-fluorophenyl)thio)-6-(6-(3-hydroxypyrrolidin-1-yl)pyridin-3-yl)pyrazolo[1,5-a]pyridine-3-carbonitrile]	1
N#Cc1cc(F)ccc1Sc1cc(-c2ccc(N3CC[C@@H](O)C3)nc2)cn2ncc(C#N)c12 [Example 627, (R)-4-((2-cyano-4-fluorophenyl)thio)-6-(6-(3-hydroxypyrrolidin-1-yl)pyridin-3-yl)pyrazolo[1,5-a]pyridine-3-carbonitrile]	2
N#Cc1cc(F)ccc1Sc1cc(-c2ccc(N3C[C@@H](O)[C@@H](O)C3)nc2)cn2ncc(C#N)c12 [Example 628, 4-((2-cyano-4-fluorophenyl)thio)-6-(6-((3R,4S)-3,4-dihydroxypyrrolidin-1-yl)pyridin-3-yl)pyrazolo[1,5-a]pyridine-3-carbonitrile]	1
N#Cc1cc(F)ccc1Sc1cc(-c2ccc(N3C[C@@H](O)[C@H](O)C3)nc2)cn2ncc(C#N)c12 [Example 629, 4-((2-cyano-4-fluorophenyl)thio)-6-(6-((3R,4R)-3,4-dihydroxypyrrolidin-1-yl)pyridin-3-yl)pyrazolo[1,5-a]pyridine-3-carbonitrile]	1.6
CC(=O)N1CCC[C@H](n2cc(-c3cc(Sc4nc(C)c(F)cc4F)c4c(C#N)cnn4c3)cn2)C1 [Example 630, (S)-6-(1-(1-acetylpiperidin-3-yl)-1H-pyrazol-4-yl)-4-((3,5-difluoro-6-methylpyridin-2-yl)thio)pyrazolo[1,5-a]pyridine-3-carbonitrile]	1
Cc1nc(Sc2cc(-c3cnn([C@H]4CCCNC4)c3)cn3ncc(C#N)c23)c(F)cc1F [Example 631, (S)-4-((3,5-difluoro-6-methylpyridin-2-yl)thio)-6-(1-(piperidin-3-yl)-1H-pyrazol-4-yl)pyrazolo[1,5-a]pyridine-3-carbonitrile]	1
Cc1c(-c2cc(Sc3ccc(F)cc3C#N)c3c(C#N)cnn3c2)cnn1[C@@H]1CCCC[C@H]1O [Example 632, 4-((2-cyano-4-fluorophenyl)thio)-6-(1-((1R,2R)-2-hydroxycyclohexyl)-5-methyl-1H-pyrazol-4-yl)pyrazolo[1,5-a]pyridine-3-carbonitrile]	32
Cc1c(-c2cc(Sc3ccc(F)cc3C#N)c3c(C#N)cnn3c2)cnn1[C@H]1CCCC[C@@H]1O [Example 633, 4-((2-cyano-4-fluorophenyl)thio)-6-(1-((2S,2S)-2-hydroxycyclohexyl)-5-methyl-1H-pyrazol-4-yl)pyrazolo[1,5-a]pyridine-3-carbonitrile]	1

Same assay, conditions: read-out: Enz FGFR2; FGFR2 wild type enzyme assay

SMILES	IC50 [nM]
CC(=O)O[C@H]1CC[C@H](n2ncc(-c3cc(Sc4ccc(F)cc4C#N)c4c(C#N)cnn4c3)c2C)CC1 [Example 602, (1r,4r)-4-(4-(3-cyano-4-((2-cyano-4-fluorophenyl)thhio)pyrazolo [1,5-a]pyridin-6-yl)-5-methyl-1H-pyrazol-1-yl)cyclohexyl acetate]	2
